Data reported in US10865236B2, “Bispecific antigen-binding molecules that bind a staphylococcus target antigen and a complement component and uses thereof” (priority 2017, dated 2020).

Test system: S. aureus MW2
Experiment: Mouse MRSA bacteremia model: bispecific antibody alone or in combination with linezolid, kidney, lung and heart burden Day 4
Assay type: in vivo, Humanized C1q (C1q^Hu/Hu) mice
Protocol: The bacteremia model described above in Example 12 was used to evaluate the activity of an anti-IsdB× anti-C1q bispecific antibody against S. aureus MRSA strains in reducing bacterial burden when used in combination with a standard-of-care antibiotic.
Humanized C1q (C1q^Hu/Hu) mice were infected intraperitoneally with 1.3×10^8 colony forming units (CFUs) per mouse of S. aureus MW2 in a volume of 200 ul. S. aureus MW2 was grown to log phase, OD600≤1, in TSB at 37° C. and washed 3 times in PBS and adjusted to the desired density for infection. Starting at eighteen (18) hours following infection, 2 groups of mice (n=5) were treated with 80 mg/kg of linezolid by oral gavage (200 ul volume), twice daily on Days 1, 2 and 3. […] Mice were weighed daily until Day 4 post infection and change in weight was recorded. Mice were euthanized on Day 4 and kidneys, lungs and hearts were collected to determine organ burden. Briefly, the organs were homogenized in 5 mL PBS using gentleMACS Octo Dissociator (Miltenyi Biotec) using programme-E. The tissue homogenates were then diluted in PBS and multiple 10-fold serial dilutions were plated on LB agar plates and incubated at 37° C. overnight. The next day, individual colonies were counted to determine bacterial burden and results were reported as CFUs/gram tissue.

Q: With CC(=O)NC[C@H]1CN(c2ccc(N3CCOCC3)c(F)c2)C(=O)O1 [linezolid, reference compound] as the molecule, how does the “log reduction in overall CFUs, lung” value (MW2) read?
A: Its value is 2 log.

Q: And the “log reduction in overall CFUs, kidneys” value (MW2, compared to infection control (8.5 logs))?
A: Its value is “less than 2 log”.

Q: And the “log CFU reduction, heart” value (MW2, limit of detection 10^3 CFU)?
A: The value was 3 log.

Q: What about the CFUs/g heart (single agent (H1H20631D 100 ug/mouse, Antibiotic None; or Linezolid, no antibody), heart) of the same molecule?
A: Its CFUs/g heart is 2.08E+05 CFUs/g.

Q: What about the CFUs/g kidney (single agent (H1H20631D 100 ug/mouse, Antibiotic None; or Linezolid, no antibody), kidney) of the same molecule?
A: Its CFUs/g kidney is 6.99E+06 CFUs/g.

Q: And the CFUs/g lung (single agent (H1H20631D 100 ug/mouse, Antibiotic None; or Linezolid, no antibody), lung)?
A: The CFUs/g lung was 6.98E+05 CFUs/g.
